US20110275709A1, “TELLURIUM-CONTAINING COMPOUNDS FOR AFFECTING MALE'S FERTILITY FOLLOWING CHEMOTHERAPY AND/OR RADIOTHERAPY” (BIOMAS LTD., priority 2009, published 2011)
Entries after “also recorded” stand apart in the source; their conditions may differ. Read-outs that look alike come from different tables or passages of the source. Marks after values point to notes of the source that are not given here.

Tests used:
[1] = test system: phosphorylated Akt (pAkt); format: in vivo, mice; conditions: relative to the PBS group; testes homogenate, densitometry; FIGS. 12A-B
Protocol: (§1) Frozen testes were homogenized in 1 ml of RIPA lysis buffer containing protease inhibitor cocktail and phosphatase inhibitor cocktail II. The tissue was then pulverized with a Dounce homogenizer and the homogenate subjected to centrifugation at 14,000 g for 15 minutes. The supernatant was collected and used for protein determination using Bradford reagent. Tissue samples were denatured in reducing buffer (62 mM Tris [pH 6.8], 10% glycerol, 2% sodium dodecyl sulfate [SDS], 5% f3-mercaptoethanol and 0.003% bromophenol blue) and separated by electrophoresis on an SDS (12%) polyacrylamide gel at 35 mA. The separated proteins were transferred onto a nitrocellulose membrane using the transfer buffer (39 mM glycine, 48 mM Tris [pH 8.3] and 20% methanol) at 20 V at 4° C. overnight. The membranes were stained with Ponceau S (0.005% in 1% acetic acid) to confirm equal amounts of protein, and blocked with 5% non-fat dry milk in Tris buffered saline with 0.1% TWEEN (TBS-T) for 1 hour at room temperature, and washed three times for 10 minutes each time in TBS-T. The following primary rabbit monoclonal antibodies were used: anti-human phospho-Akt1/2/3, anti-human GSK-3β and anti-human phospho-GSK-3β. Mouse antibody against chicken α-tubulin was used in order to confirm that the protein load was similar in all lanes. Membranes were incubated with the appropriate diluted antibody overnight at 4° C. After being washed three times for 10 minutes each time in TBS-T, the membranes were incubated for 1 hour at room temperature with peroxidase-conjugated goat anti-rabbit or goat anti-mouse IgG antibody. After washing, the membranes were analyzed by an enhanced chemiluminescence system according to the manufacturer's protocol (Pierce). Densitometry was conducted in order to quantify differences in band intensity using the Image J image-processing program (NIH, Bethesda, Md., USA). Results were normalized by comparison to the values in the PBS control group in each membrane.
(§2) Phosphorylation of Akt and GSK-3β was determined using gel electrophoresis and Western blotting, as described in the Materials and Methods section.

[2] = test system: phosphorylated GSK-3β (pGSK-3β); format: in vivo, mice; conditions: of the PBS group; testes homogenate, densitometry; FIGS. 13A-B
Protocol: as §1, §2

Balb/c male mice [3] = conditions: Cy 200 mg/kg ip once a week for 5 weeks; for Body weight / Epididymis weight / Epididymis weight (normalized to body weight) / Testes weight / Testes weight (normalized to body weight) / Sperm concentration: AS101 10 μg/mouse ip every other day; for Body weight / Epididymis weight / Epididymis weight (normalized to body weight) / Testes weight / Testes weight (normalized to body weight): sacrificed 5 weeks after last injection; for Sperm concentration: epididymal sperm
Protocol: In order to recover the motile epididymal spermatozoa, the two caudal epididymides were placed in M2 medium (Sigma), minced with fine scissors and incubated at 37° C. in an atmosphere of 95% air and 5% CO2 for 15 minutes prior to careful removal of all medium. Samples were then diluted to a final volume of 1 ml in M2. The concentration of sperm cells in the medium was then evaluated using a hemocytometer, and the samples were frozen at −80° C.
(§3) Ten mice were injected intraperitoneally (ip) with 200 mg/kg of cyclophosphamide (Cy) once a week for a period of 5 weeks (Cy group).
(§4) Another ten mice (Cy+AS101 group) were co-treated with Cy as described for the Cy group and with i.p. injections of AS101 at a dosage of 10 μg/mouse every other day, starting 1 week before the first Cy injection and continuing during the 5 weeks of Cy treatment.
(§5) An additional group of ten mice were injected with PBS only (PBS group), and another ten mice were treated with i.p. injections of AS101 at a dosage of 10 μg/mouse every other day (AS101 group), as described for the Cy+AS101 group. The animals from all groups were sacrificed 5 weeks after the last injection by cervical dislocation, and body weights were determined; thereafter, epididymides and testes were quickly dissected out, weighed and fixed.
Body weight, testes weight, testes weight normalized to body weight, epididymis weight, epididymis weight normalized to body weight, and sperm concentration were determined for the mice of each of the 4 treatment groups.

Balb/c male mice [4] = format: in vivo; conditions: Cy 200 mg/kg ip weekly for 5 weeks, AS101 10 μg/mouse ip every other day; for testicular histology (seminiferous tubules, cross sections): FIGS. 7A-7D
Protocol: (§6) The removed testes were pierced with a needle and fixed in Bouin's fixative. After 24 hours, testes were washed three times and maintained in 70% ethanol. Samples were then embedded in paraffin and sectioned. Tissue sections (5 μm) were then stained using hematoxylin/eosin and examined randomly under a light microscope (AX70, Olympus, Tokyo, Japan) under ×100 magnification.
as §3, §4, §5

Balb/c male mice [5] = format: in vivo; conditions: females mated with treated males, Cy 200 mg/kg ip weekly for 5 weeks
Protocol: (§7) Fertility assays were performed on the “chemotherapy only” group, “chemotherapy+AS101” group, and control (PBS) group. Each male was placed with three young virgin females, aged 6 weeks. These females were examined daily for vaginal plugs. Once mating was documented, females were separated, and the pregnancies allowed to progress. […] The number of pregnant females and litter size was noted.
as §3, §4, §5

sperm nuclear DNA = format: in vivo, mice; conditions: Cy 200 mg/kg ip weekly for 5 weeks; AS101 10 μg/mouse ip every other day; FIG. 9
Protocol: as §3, §4, §5

[6] = test system: tumor models in mice and humans; conditions: cited from earlier work
mice = conditions: cited from earlier work
cancer patients = conditions: AS101 in combination with chemotherapy; cited from earlier work
Balb/c male mice [7] = assay: Effect of treatments on testicular weight (procarbazine-induced testicular damage); format: in vivo; conditions: AS101 10 μg/mouse ip every other day, FIG. 3
Excerpt: Inbred Balb/c male mice, aged 5-6 weeks, were used. To ensure the fertility of the mice, each mouse was placed with two young healthy females.
(§8) The administration protocols for the four groups are depicted in FIG. 1.
Weights were normalized to the weight of the mouse. Each group contained 10 mice.

Balb/c male mice [8] = assay: Evaluation of male fertility (procarbazine); format: in vivo; conditions: females mated with treated males, PCB single dose 200 mg/kg
Protocol: as §7
Each group contained 5 male mice.

testicular cells = assay: Analysis of testicular damage by DNA flow cytometry (procarbazine); format: in vivo; conditions: PCB single dose 200 mg/kg; propidium iodide flow cytometry; 5 mice per group; FIG. 6
Protocol: Quantification of DNA content in testicular cell populations by propidium iodide staining followed by flow cytometry is an objective, rapid, and robust method for the analysis spermatogenic damage. The method provides quantitative values for evaluating the changes in the proportion in the number of 1N (mature and immature haploid), 2N (diploid), and 4N (tetraploid) cells in the testis. The method was performed as previously described (Malkov at al., 1998). Briefly, testes were dissected, decapsulated, and the contents of the testes were transferred into a tube containing 5 ml ice-cold separation medium. Then, a collagenase solution was added and incubation was carried out for 5 minutes at 37° C. under vigorous shaking. The seminiferous cords were allowed to sediment to the bottom of the tube while being incubated on ice. The seminiferous cords were washed twice in 10 ml separation medium, re-suspended in separation medium containing 2.5 mg/ml trypsin and 1U/ml DNase I, incubated for 2 minutes at 37° C., and transferred to ice. Using a Pasteur pipette, the seminiferous cords was disintegrated into single cells and were then filtered through a […] nylon mesh, washed twice with separation medium (centrifugation at 200-300 g), and counted. For FACS analysis, testicular cells were brought to a concentration of 2-3×10^6 cells/ml in separation medium and diluted 1:1 with propidium iodide solution (10 mM Tris pH 8, 1 mM NaCl, 0.1% Nonidet P-40, 0.7 mg/ml Rnase A, and 0.05 mg/ml propidium iodide). Cells were analyzed by a Becton-Dickinson (San Francisco, Calif.) FACSort instrument, equipped with an argon laser, within 2 hours from staining. Excitation was at 488 nm and emission at 585 nm. The parameters measured for each cell were forward scatter (FSC-H), side scatter (SSC-H), and total fluorescence emitted from the cell (FL2-A).
(§9) Each group contained 5 mice.

Balb/c male mice [9] = assay: Histological evaluation of testicular damage (procarbazine); format: in vivo; conditions: three weekly injections of 200 mg/kg PCB; 5 mice per group; FIGS. 2A-2C
Protocol: as §6, §8, §9

Structure (SMILES)	average level of phosphorylated Akt (pAkt) [1]	level of phosphorylated GSK-3β (pGSK-3β) [2]	Body weight (Balb/c male mice [3])	Epididymis weight (Balb/c male mice [3])	Epididymis weight (normalized to body weight) (Balb/c male mice [3])	Testes weight (Balb/c male mice [3])	Testes weight (normalized to body weight) (Balb/c male mice [3])	Sperm concentration (Balb/c male mice [3])	testicular histology (seminiferous tubules, cross sections) (Balb/c male mice [4])	other results
O=P1(N(CCCl)CCCl)NCCCO1 (stereo not drawn) [Cy, cyclophosphamide]	55.3±25.6%	36.4±12.5%	22.8 ± 2.1 gram	25.1 ± 2.9 mg	1.1 ± 0.1 mg/gram body weight	46.3 ± 8.7 mg	1.98 ± 0.16 mg/gram body weight	8.7 ± 1.6* 10^6 cells/ml	empty and atrophic seminiferous tubules	deaths (Balb/c male mice [3]): no deaths occurred; average percentage of damaged seminiferous tubules (Balb/c male mice [4]; FIG. 8): 76.0±10.8%; percentage of impregnated females (Balb/c male mice [5]; FIG. 10): 20.0±4.2%; litter size of females which did achieve pregnancy (Balb/c male mice [5]; FIG. 11): 4.3±1.4; percentage of sperm cells with abnormal chromatin structure (% DFI) (sperm nuclear DNA): 44.7±1.0%
Cl[TeH]1(Cl)(Cl)OCCO1.N [AS101, ammonium trichloro(dioxyethylene-O,O′)tellurate]	175.3±28.4%	130.3±16.9%	26.2 ± 1.0 gram	34.2 ± 4.2 mg	1.3 ± 0.1 mg/gram body weight	105.7 ± 14.7 mg	4.3 ± 0.3 mg/gram body weight	22.5 ± 3.8 10^6 cells/ml	normal cellular content; also recorded: no effect on testicular histology	combination effect with Cy ([6]; treatment of tumor-bearing mice): synergistic effect with Cy; anti-tumoral effect ([6]; variety of tumor models in mice and humans): clear anti-tumoral effect; protection from hematopoietic damage (mice; lethal and sublethal doses of chemotherapeutic drugs, including cyclophosphamide): protect mice from hematopoietic damage; survival of mice (mice; mice treated with various cytotoxic drugs or radiation): increase the survival of mice; severity of neutropenia, thrombocytopenia and alopecia that accompany chemotherapy (cancer patients): significant reduction in the severity of neutropenia, thrombocytopenia, and alopecia; effect of AS101 alone on testicular weight (Balb/c male mice [7]; no PCB): no significant effect
CNNCc1ccc(C(=O)NC(C)C)cc1 [PCB, Procarbazine]	–	–	–	–	–	–	–	–	–	litter size (Balb/c male mice [8]; 5 male mice per group, FIG. 4): 1.4±2.9; percentage of impregnated females (Balb/c male mice [8]; FIG. 5): 20%; percentage of cells with 1N (haploid) DNA in the testes (testicular cells): 24.2±4.0%; percentage of cells with 2N (diploid) DNA in the testes (testicular cells): 54.9±4.2%; percentage of cells with 4N (tetraploid) DNA in the testes (testicular cells): 4.7±0.4%; average testicular weight (Balb/c male mice [7]; PCB single dose 200 mg/kg, normalized to mouse weight, 10 mice per group): 1.9±0.2 mg per grams body weight; testicular histology (hematoxylin/eosin sections) (Balb/c male mice [9]): empty and atrophic seminiferous tubules
